From the NIST ThermoML archive (doi:10.1021/acs.jced.7b00866)
Numbers after ± are expanded uncertainties.

Details: Liquid, Capillary tube (Ostwald / Ubbelohde) method

CCCCCCCCCCCC [dodecane]
Details	viscosity [mPa·s]
298.2 K, 6020 kPa	1.461 ± 0.026
298.2 K, 8050 kPa	1.497 ± 0.032
298.2 K, 10020 kPa	1.533 ± 0.034
303.3 K, 10020 kPa	1.394 ± 0.03
303.4 K, 8050 kPa	1.365 ± 0.03
304.9 K, 6020 kPa	1.348 ± 0.028
313.3 K, 10020 kPa	1.184 ± 0.025
313.4 K, 8000 kPa	1.162 ± 0.025
314.5 K, 5990 kPa	1.135 ± 0.025
323.1 K, 8010 kPa	1.007 ± 0.022
323.4 K, 6050 kPa	0.9748 ± 0.025
323.4 K, 10000 kPa	1.021 ± 0.023
333.3 K, 8030 kPa	0.8787 ± 0.021
333.4 K, 10000 kPa	0.8918 ± 0.022
334.1 K, 6010 kPa	0.8555 ± 0.023
343.2 K, 8070 kPa	0.7787 ± 0.02
343.3 K, 5990 kPa	0.7562 ± 0.02
343.3 K, 10010 kPa	0.79 ± 0.02
353.4 K, 6080 kPa	0.6746 ± 0.021
353.4 K, 9980 kPa	0.703 ± 0.019
353.6 K, 8020 kPa	0.6919 ± 0.02
363.3 K, 10050 kPa	0.6332 ± 0.019
363.7 K, 8020 kPa	0.6209 ± 0.019
364 K, 6040 kPa	0.6028 ± 0.019
373.1 K, 10070 kPa	0.5743 ± 0.019
373.9 K, 8020 kPa	0.5622 ± 0.019
374 K, 6000 kPa	0.5462 ± 0.019
383 K, 6010 kPa	0.5011 ± 0.019
383.2 K, 10000 kPa	0.523 ± 0.019
383.4 K, 8050 kPa	0.5137 ± 0.019
393 K, 10020 kPa	0.4798 ± 0.018
393.1 K, 6080 kPa	0.4584 ± 0.019
393.6 K, 8030 kPa	0.4694 ± 0.018
403 K, 6040 kPa	0.4213 ± 0.018
403.1 K, 10040 kPa	0.4407 ± 0.018
404.1 K, 8020 kPa	0.4304 ± 0.018
412.9 K, 10010 kPa	0.4076 ± 0.018
413.2 K, 6080 kPa	0.3885 ± 0.018
413.7 K, 7990 kPa	0.3987 ± 0.018
423 K, 6080 kPa	0.3581 ± 0.018
423.4 K, 10000 kPa	0.3765 ± 0.018
423.9 K, 8050 kPa	0.3686 ± 0.018
432.9 K, 10020 kPa	0.3504 ± 0.018
433.2 K, 6010 kPa	0.3334 ± 0.018
433.3 K, 8000 kPa	0.3405 ± 0.018
443.2 K, 10050 kPa	0.3257 ± 0.018
443.5 K, 6020 kPa	0.3092 ± 0.018
443.5 K, 8010 kPa	0.3152 ± 0.018
453.3 K, 6020 kPa	0.2855 ± 0.018
453.3 K, 9950 kPa	0.3036 ± 0.018
454 K, 8040 kPa	0.2936 ± 0.018
463.3 K, 10010 kPa	0.2839 ± 0.018
463.4 K, 6040 kPa	0.2664 ± 0.018
464.1 K, 8020 kPa	0.2738 ± 0.018
473.3 K, 10050 kPa	0.2657 ± 0.018
473.4 K, 6040 kPa	0.251 ± 0.018
473.5 K, 8010 kPa	0.2525 ± 0.018
483.4 K, 6050 kPa	0.2305 ± 0.018
483.4 K, 8080 kPa	0.2405 ± 0.018
483.4 K, 10000 kPa	0.2489 ± 0.018
493.2 K, 10050 kPa	0.2338 ± 0.018
493.4 K, 6040 kPa	0.216 ± 0.018
493.4 K, 8010 kPa	0.2247 ± 0.018
502.7 K, 7960 kPa	0.2075 ± 0.018
503.2 K, 10010 kPa	0.2197 ± 0.018
503.4 K, 6080 kPa	0.2005 ± 0.018
513 K, 8040 kPa	0.1945 ± 0.018
513 K, 10000 kPa	0.207 ± 0.018
514.2 K, 6050 kPa	0.186 ± 0.018
523 K, 8000 kPa	0.1822 ± 0.018
523.7 K, 5970 kPa	0.1737 ± 0.018
523.7 K, 10040 kPa	0.1949 ± 0.018
533.3 K, 8040 kPa	0.1736 ± 0.018
533.5 K, 6040 kPa	0.1638 ± 0.018
533.5 K, 10070 kPa	0.1825 ± 0.018
542.9 K, 6010 kPa	0.1526 ± 0.018
542.9 K, 8060 kPa	0.1603 ± 0.018
542.9 K, 9950 kPa	0.1682 ± 0.018
552.9 K, 6070 kPa	0.1419 ± 0.018
552.9 K, 10020 kPa	0.158 ± 0.018
553.2 K, 8010 kPa	0.1506 ± 0.018
563 K, 6050 kPa	0.1337 ± 0.018
563 K, 8020 kPa	0.1414 ± 0.018
563 K, 10020 kPa	0.1509 ± 0.018
573 K, 6010 kPa	0.124 ± 0.018
573 K, 8020 kPa	0.1347 ± 0.018
573 K, 10040 kPa	0.1437 ± 0.018
582.8 K, 6000 kPa	0.1159 ± 0.018
582.8 K, 10010 kPa	0.132 ± 0.018
582.9 K, 7960 kPa	0.1265 ± 0.018
592.9 K, 8070 kPa	0.12 ± 0.018
593 K, 6020 kPa	0.1104 ± 0.018
593 K, 10000 kPa	0.1263 ± 0.018
602.9 K, 8020 kPa	0.1128 ± 0.018
603.1 K, 6010 kPa	0.1048 ± 0.018
603.1 K, 10010 kPa	0.1186 ± 0.018
612.9 K, 8020 kPa	0.1058 ± 0.018
613.1 K, 6040 kPa	0.0969 ± 0.018
613.1 K, 10010 kPa	0.1116 ± 0.018
623 K, 7990 kPa	0.1003 ± 0.018
623.2 K, 6050 kPa	0.0908 ± 0.018
623.2 K, 10050 kPa	0.1056 ± 0.018
632.8 K, 8040 kPa	0.0933 ± 0.018
633.5 K, 6020 kPa	0.0848 ± 0.018
633.5 K, 10010 kPa	0.0992 ± 0.018
643 K, 8050 kPa	0.0878 ± 0.018
643.4 K, 6020 kPa	0.0789 ± 0.018
643.4 K, 10010 kPa	0.0943 ± 0.018
652.9 K, 8020 kPa	0.0824 ± 0.018
653.4 K, 6070 kPa	0.0733 ± 0.018
653.4 K, 10040 kPa	0.087 ± 0.018
663.1 K, 8010 kPa	0.0775 ± 0.018
663.2 K, 6010 kPa	0.0682 ± 0.018
663.2 K, 10050 kPa	0.0823 ± 0.018
672.9 K, 8010 kPa	0.0727 ± 0.018
673.5 K, 6040 kPa	0.0635 ± 0.018
673.5 K, 9980 kPa	0.0785 ± 0.018
683.2 K, 8050 kPa	0.0685 ± 0.018
683.2 K, 10040 kPa	0.0746 ± 0.018
683.3 K, 6010 kPa	0.059 ± 0.018
693.2 K, 6010 kPa	0.0548 ± 0.018
693.2 K, 8020 kPa	0.0643 ± 0.018
693.2 K, 10010 kPa	0.0712 ± 0.018
